Results published in ChEMBL document CHEMBL3112544, “Discovery of ZAP70 inhibitors by high-throughput docking into a conformation of its kinase domain generated by molecular dynamics” (Bioorg Med Chem Lett, 2013).
Active and inactive are the calls of the source. The rule behind the calls is not given here.

Tests used:
[1] = biological target: T1, Tyrosine-protein kinase ZAP-70 (Homo sapiens) (UniProt P43403); assay: Inhibition of full-length ZAP70 (unknown origin) at 20 uM by radioactive ATP method
T1 sequence (whole entry): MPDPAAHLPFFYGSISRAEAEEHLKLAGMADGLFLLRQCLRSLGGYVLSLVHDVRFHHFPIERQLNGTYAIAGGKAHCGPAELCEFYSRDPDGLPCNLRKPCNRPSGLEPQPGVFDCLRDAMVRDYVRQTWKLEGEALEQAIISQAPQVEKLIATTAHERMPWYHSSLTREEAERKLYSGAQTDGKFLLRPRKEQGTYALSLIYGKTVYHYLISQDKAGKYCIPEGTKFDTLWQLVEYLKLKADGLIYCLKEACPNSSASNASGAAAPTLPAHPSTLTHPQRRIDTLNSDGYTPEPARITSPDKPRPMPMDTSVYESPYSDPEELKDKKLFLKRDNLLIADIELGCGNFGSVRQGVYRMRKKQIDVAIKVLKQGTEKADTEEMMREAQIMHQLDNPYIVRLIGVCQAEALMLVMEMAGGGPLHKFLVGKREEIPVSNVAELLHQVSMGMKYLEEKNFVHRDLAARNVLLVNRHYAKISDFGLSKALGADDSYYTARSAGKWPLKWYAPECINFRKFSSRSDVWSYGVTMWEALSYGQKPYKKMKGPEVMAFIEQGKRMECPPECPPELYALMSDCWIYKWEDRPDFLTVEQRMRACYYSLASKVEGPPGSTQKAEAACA

[2] = biological target: T2, Tyrosine-protein kinase ZAP-70 (Homo sapiens, UniProt P43403); assay: Inhibition of full-length ZAP70 (unknown origin) by radioactive ATP method
T2 sequence (P43403 whole entry): T1 sequence (whole entry)

[3] = biological target: T3, Tyrosine-protein kinase SYK (Homo sapiens, UniProt P43405); assay: Inhibition of SYK (unknown origin) by radioactive ATP method
[4] = biological target: T4, Tyrosine-protein kinase JAK2 (Homo sapiens, UniProt O60674); assay: Inhibition of JAK2 (unknown origin) by radioactive ATP method
[5] = biological target: T3, Tyrosine-protein kinase SYK; assay: Inhibition of SYK (unknown origin) at 20 uM by radioactive ATP method
[6] = biological target: T4, Tyrosine-protein kinase JAK2; assay: Inhibition of JAK2 (unknown origin) at 20 uM by radioactive ATP method

T4 sequence (O60674 whole entry): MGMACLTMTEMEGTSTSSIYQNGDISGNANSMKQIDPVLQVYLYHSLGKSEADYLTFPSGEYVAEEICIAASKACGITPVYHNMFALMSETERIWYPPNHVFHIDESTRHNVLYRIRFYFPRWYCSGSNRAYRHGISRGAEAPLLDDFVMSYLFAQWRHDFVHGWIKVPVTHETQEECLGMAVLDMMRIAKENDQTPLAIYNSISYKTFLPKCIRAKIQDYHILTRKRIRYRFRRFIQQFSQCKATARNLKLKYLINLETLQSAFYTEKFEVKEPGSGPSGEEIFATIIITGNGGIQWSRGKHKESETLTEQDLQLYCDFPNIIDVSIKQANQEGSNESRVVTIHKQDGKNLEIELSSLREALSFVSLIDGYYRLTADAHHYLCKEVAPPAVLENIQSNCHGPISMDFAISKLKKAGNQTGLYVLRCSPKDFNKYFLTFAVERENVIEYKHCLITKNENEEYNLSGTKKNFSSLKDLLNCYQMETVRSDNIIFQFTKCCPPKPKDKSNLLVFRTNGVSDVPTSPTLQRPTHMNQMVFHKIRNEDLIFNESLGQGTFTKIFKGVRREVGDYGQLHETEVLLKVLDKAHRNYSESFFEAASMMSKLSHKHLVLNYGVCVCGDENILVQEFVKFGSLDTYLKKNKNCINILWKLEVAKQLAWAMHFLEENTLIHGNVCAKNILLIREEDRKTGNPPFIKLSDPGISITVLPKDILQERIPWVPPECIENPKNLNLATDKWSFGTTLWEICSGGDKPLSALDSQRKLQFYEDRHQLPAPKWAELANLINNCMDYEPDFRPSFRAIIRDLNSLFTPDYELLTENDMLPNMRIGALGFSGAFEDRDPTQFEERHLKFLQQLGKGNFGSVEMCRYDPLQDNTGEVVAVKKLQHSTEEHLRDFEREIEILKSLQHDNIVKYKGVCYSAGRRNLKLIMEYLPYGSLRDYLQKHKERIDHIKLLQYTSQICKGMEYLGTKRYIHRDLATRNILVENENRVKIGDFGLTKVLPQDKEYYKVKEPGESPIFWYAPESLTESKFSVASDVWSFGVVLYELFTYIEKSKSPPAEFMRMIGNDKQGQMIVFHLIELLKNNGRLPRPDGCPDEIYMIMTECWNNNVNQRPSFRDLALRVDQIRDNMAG

Row | Structure (SMILES) | inhibition [1] | further results
1 | O=C1NC(=O)N(c2ccc(F)cc2)C(=O)/C1=C\c1cccn1-c1ccc(O)cc1 | inactive | 
2 | N[C@@H](CO)C(=O)N1CCc2[nH]nc(-c3ccc(F)c(F)c3)c2C1 | inactive | 
3 | O=C1NN(c2ccccc2)C(=O)/C1=C/c1ccc(-c2ccccc2Cl)o1 |  | IC50 [2]: 14 µM; IC50 [3]: 57 µM
4 | CCn1c(N)c(-c2csc(-c3ccc(O)cc3)n2)c(=O)[nH]c1=O | inactive | 
5 | O=C1NC(=O)N(c2ccccc2F)C(=O)/C1=C\c1cccn1-c1ccccc1 | inactive | 
6 | COc1ccc(Nc2nc(N3CCOCC3)c3nc[nH]c3n2)cc1OC |  | IC50 [4]: 0.11 µM; IC50 [2]: 62 µM; IC50 [3]: 12 µM
7 | O=C1NN(c2ccccc2)C(=O)/C1=C/c1ccc(-c2ccccc2)o1 | 49% | inhibition [5]: 17%
8 | O=C1NC(=O)N(c2cccc(F)c2)C(=O)/C1=C\c1cccn1-c1ccccc1 | inactive | 
9 | O=C1Nc2ccccc2/C1=C(\c1ccccc1)c1nc2ccccc2[nH]1 |  | IC50 [2]: 26 µM; IC50 [3]: 40 µM
10 | Oc1ccc(-c2ccnc3cc(Cl)ccc23)cc1CN1CCCCC1 | inactive | 
11 | COc1ccc(/C=C2/NC(=O)N(c3cccc(Cl)c3)C2=O)cc1O | inactive | 
12 | CCOc1ccc(Nc2nc(N)c(C(=O)c3cccc(OC)c3)s2)cc1 |  | IC50 [2]: 29 µM; IC50 [3]: > 200 µM
13 | O=C1NN(c2ccccc2)C(=O)/C1=C\c1cc(Cl)ccc1OCc1ccccc1 |  | IC50 [4]: 15 µM; inhibition [5]: 16%; IC50 [2]: 22 µM
14 | Cc1cc(NC(=O)c2sc(Nc3ccccc3)nc2N)on1 | inactive | 
15 | O=C1Nc2ccc3c(oc4ccccc43)c2C1=NNc1ccncc1 |  | IC50 [4]: 11 µM; IC50 [2]: 8 µM; IC50 [3]: 26 µM
16 | COc1ccc(NC2=NC3NN=C(N)C3C3=C2CN(C)CC3)cc1 (stereo unspecified) | inactive | 
17 | O=C1NN(c2ccc(F)cc2)C(=O)/C1=C\c1cccc(OCc2ccccc2F)c1 | 46% | inhibition [6]: 22%; inhibition [5]: 16%
18 | Nc1ccc(C(=O)N2CCc3[nH]nc(-c4cc(F)cc(F)c4)c3C2)cn1 | inactive | 
19 | CC(C)c1ccc(-c2c(C#N)c(N)nc3sc(C(N)=O)c(N)c23)cc1 | inactive | 
20 | Cc1ccc(-c2n[nH]c3c2CN(c2ncc(F)c(NCCO)n2)CC3)cc1 | inactive | 
21 | O=C1NC(=S)N/C1=C1\C(=O)N(Cc2ccccc2Cl)c2ccccc21 |  | IC50 [2]: 21 µM; IC50 [3]: 168 µM

More lines, main results first:

Row | inhibition [1] | Structure (SMILES) | further results
22 | inactive | COc1cccc(-c2ccnc3[nH]n(-c4ccccc4)c(=O)c23)c1 | 
23 | inactive | O=C1Nc2ccc(S(=O)(=O)Cc3ccc4ccccc4c3)c3cccc1c23 | 
24 | inactive | O=C1N/C(=C/c2ccc(O)cc2)C(=O)N1c1ccccc1 | 
25 | inactive | O=C(c1ccc2[nH]cnc2c1)N1CCc2[nH]nc(-c3cccc(Cl)c3)c2C1 | 
26 | inactive | O=C(c1ccc2[nH]c(=O)[nH]c2c1)N1CCc2[nH]nc(-c3ccccc3)c2C1 | 
27 | inactive | CC(=O)Nc1ccc(OS(=O)(=O)c2ccc3[nH]c(=O)[nH]c3c2)cc1 | 
28 | inactive | O=c1[nH]c2ccc(S(=O)(=O)NC3CC3)cc2c2ccccc12 | 
29 | inactive | Clc1cccc(C2C=C(c3cccnc3)Nc3nc4ccccc4n32)c1 (stereo unspecified) | 
30 | 43% | Cc1cc(/C=C2/C(=O)NN(c3ccccc3)C2=O)c(C)n1-c1cccc(O)c1 | inhibition [5]: 16%
31 | inactive | N#C/C(=C1/C(=O)Nc2ccccc21)c1nc2ccccc2[nH]1 | 
32 | inactive | Cc1ccc2[nH]c3c(c2c1)CCC1C3=NNC1c1ccccc1 (stereo unspecified) | 
